# From patent US11344601B2, “Tumor microenvironment-related target TAK1 and application thereof in inhibition of tumor” (Shanghai Institutes for Biological Sciences, Chinese …, priority 2017, dated 2022)
# Assays:
# IL-8 = IL-8 protein expression of damaged stromal cells (Western blot, ELISA); type: cell-based, human
# Experimental: FIG. 15. The stromal cells were collected on Day 7 after bleomycin and/or 5Z-7 treatment. The lysates were analyzed by Western blot for their phosphorylation levels of ATM and TAK1, and activation of TAK1 downstream substrate JN K and p38. IL-8, a chemokine was used as a marker secreted factor of SASP, whose expression level was simultaneously analyzed. FIG. 33. The extracellular fluid released by each group of cells were tested by ELISA to determine the protein expression level of the secreted factor IL-8.
# [1] = tested on: prostate cancer epithelial cell lines (BPH1, M12, PC3, DU145 and LNCaP); experiment: Chemotherapy resistance of cancer cells conferred by extracellular fluid of damaged PSC27 stromal cells; type: cell-based, human; conditions: stromal cells treated with TAK1 inhibitor
# Experimental: c. Experimental Treatment In Vitro • 100 nM docetaxel (DTX), 100 nM paclitaxel (PTX), 200 nM vincristine (VCR), 50 μg/ml bleomycin (BLEO), 1 μM mitoxantrone (MIT), or 10 Gy ^137CS ionizating radiation (γ-radiation at 743 rad/min, RAD) was added to the culture medium when PSC27 cells grown to 80% (PSC27-Pre) to produce cell damage. After drug treatment for 6 hours, the cells were simply washed by PBS for 3 times and kept in the culture medium for 7 to 10 days, followed by subsequent experiments. 2. Plasmid Preparation and Lentiviral Transfection • Full-length human IKKα and Flag were cloned as a fusion protein between the restriction sites BamHI and XbaI in the expression vector pCR3.1. Full-length human mTOR and GST were cloned as a fusion protein between a pair of NotI restriction sites in the expression vector pcDNA3. Packaging cell line 293FT was used for cell transfection and lentivirus production. […] FV1000 laser scanning confocal microscopy (Olympus) was used to obtain cellular confocal fluorescence images to determine the extent of DNA damage. • Antibody anti-TAK1 used for histological IHC staining in clinical prostate, non-small cell lung cancer patients and breast cancer patients, was purchased from Proteintech, idib. […] Quantitative PCR for Measuring Gene Expression […]
smiles,measurement,setting,value
"COc1cc(O)c2c(c1)/C=C/C[C@H](O)[C@H](O)C(=O)/C=C\C[C@H](C)OC2=O [5Z-7, 5z-7-oxozeaenol]",chemokine IL-8 protein levels induced by DNA damage,"IL-8; ELISA of extracellular fluid, bleomycin plus inhibitor",significantly reduced
same,protein expression level of IL-8,"IL-8; Western blot, Day 7 after bleomycin and/or 5Z-7",significantly downregulated
same,resistance of cancer cells to docetaxel conferred by stromal cell extracellular fluid,[1]; docetaxel,attenuate the acquired resistance
same,resistance of cancer cells to mitoxantrone conferred by stromal cell extracellular fluid,[1]; mitoxantrone at IC50 concentration,significantly weakened
